Source: patent US6057119A, “Crystal structure and mutants of interleukin-1β converting enzyme” (Vertex Pharmaceuticals, Incorporated, priority 1995, dated 2000)

Molecular target: T1, human interleukin-1β converting enzyme (ICE), wild type, autoprocessed p20/p10 from p30 precursor (residues Asn 120 to His 404 of p45), SEQ ID No: 1 (Homo sapiens, UniProt P29466)
T1 construct: the concomitant appearance of the p20 and p10 subunits, was monitored by SDS-PAGE, evidence that autocatalytic processing of the enzyme had occurred; made in house
T1 sequence (P29466 120-297): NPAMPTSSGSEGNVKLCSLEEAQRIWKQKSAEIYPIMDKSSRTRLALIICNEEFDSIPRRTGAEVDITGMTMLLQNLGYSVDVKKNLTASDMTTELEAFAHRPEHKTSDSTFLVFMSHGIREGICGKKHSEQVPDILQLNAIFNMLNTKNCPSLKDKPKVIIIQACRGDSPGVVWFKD
T1 sequence (P29466 317-404): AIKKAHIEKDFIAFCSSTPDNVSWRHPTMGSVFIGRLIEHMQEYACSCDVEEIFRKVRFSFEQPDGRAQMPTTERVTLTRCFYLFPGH
Test: Inhibition of autoprocessed ICE by tetrapeptide aldehyde inhibitor (activity assayed by hydrolysis of Succinyl-Tyr-Val-Ala-Asp-p-nitroanilide)
Type: biochemical
Details: 2× molar excess of inhibitor over enzyme
Procedure: The protein was concentrated to 3-5 mg/ml by ultrafiltration at 4° C., followed by incubation at room temperature. The disappearance of the p30 precursor, and the concomitant appearance of the p20 and p10 subunits, was monitored by SDS-PAGE, evidence that autocatalytic processing of the enzyme had occurred. ICE enzymatic activity was assayed by hydrolysis of a Succinyl-Tyr-Val-Ala-Asp-p-nitroanilide substrate at 37° C. and correlated closely with conversion to subunits.
The protein-inhibitor complex sample was concentrated and fractionated by size-exclusion chromatography, in final preparation for crystallization experiments.

inhibition of autoprocessed ICE: inhibited fully
SMILES: CC(=O)N[C@@H](Cc1ccc(O)cc1)C(=O)N[C@H](C(=O)N[C@@H](C)C(=O)N[C@H](C=O)CC(=O)O)C(C)C [acetyl-Tyr-Vol-Ala-Asp-H]
